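Dose response: 5 concentrations. Exposure: 48 h. Format: 96-well plates. Endpoint: linear interpolation; highest concentration if not reached. At the GI50, growth is halved.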 Activity calls are given as the source filed them. No stated cut-off is given here; in the data, active = GI50 up to about 1.1 µM and inactive = higher.
Key:
Experiment in all cases: NCI tumour cell line growth inhibition, 48 h
786-0 = test system: 786-0
A498 = test system: A498
A549 = test system: A549
ACHN = test system: ACHN
CAKI-1 = test system: CAKI-1
CCRF-CEM = test system: CCRF-CEM
COLO 205 = test system: COLO 205
DLD-1 = test system: DLD-1
DMS-114 = test system: DMS-114
DMS-273 = test system: DMS-273
EKVX = test system: EKVX
HCC 2998 = test system: HCC 2998
HCT-116 = test system: HCT-116
HCT-15 = test system: HCT-15
HL-60 = test system: HL-60
HOP-18 = test system: HOP-18
HOP-62 = test system: HOP-62
HOP-92 = test system: HOP-92
HT-29 = test system: HT-29
IGROV-1 = test system: IGROV-1
K562 = test system: K562
KM-20L2 = test system: KM-20L2
KM12 = test system: KM12
LOX IMVI = test system: LOX IMVI
LXFL 529 = test system: LXFL 529
M14 = test system: M14
M19-MEL = test system: M19-MEL
MOLT-4 = test system: MOLT-4
Malme-3M = test system: Malme-3M
NCI-H226 = test system: NCI-H226
NCI-H23 = test system: NCI-H23
NCI-H460 = test system: NCI-H460
NCI-H522 = test system: NCI-H522
OVCAR-3 = test system: OVCAR-3
OVCAR-4 = test system: OVCAR-4
OVCAR-5 = test system: OVCAR-5
OVCAR-8 = test system: OVCAR-8
RPMI-8226 = test system: RPMI-8226
RXF 393 = test system: RXF 393
RXF 631 = test system: RXF 631
SF-268 = test system: SF-268
SF-295 = test system: SF-295
SF-539 = test system: SF-539
SK-MEL-28 = test system: SK-MEL-28
SK-MEL-2 = test system: SK-MEL-2
SK-MEL-5 = test system: SK-MEL-5
SK-OV-3 = test system: SK-OV-3
SN12C = test system: SN12C
SNB-19 = test system: SNB-19
SNB-75 = test system: SNB-75
SNB-78 = test system: SNB-78
SR = test system: SR
SW-620 = test system: SW-620
TK-10 = test system: TK-10
U-251 = test system: U-251
UACC-257 = test system: UACC-257
UACC-62 = test system: UACC-62
UO-31 = test system: UO-31
XF498 = test system: XF498

COC(=O)C1C2C=CC(C2)C1(C(=O)OC)[S+]([O-])CC12CCC(CC1O)C2(C)C (centres undefined)
GI50 (786-0): > 100 µM (inactive) | GI50 (A498): > 100 µM (inactive) | GI50 (A549): > 100 µM (inactive) | GI50 (ACHN): > 100 µM (inactive) | GI50 (CAKI-1): > 100 µM (inactive) | GI50 (CCRF-CEM): > 100 µM (inactive) | GI50 (COLO 205): > 100 µM (inactive) | GI50 (DLD-1): 60.8 µM (inactive) | GI50 (DMS-114): 85.7 µM (inactive) | GI50 (DMS-273): 44.4 µM (inactive) | GI50 (EKVX): > 100 µM (inactive) | GI50 (HCC 2998): > 100 µM (inactive) | GI50 (HCT-116): > 100 µM (inactive) | GI50 (HCT-15): 19.2 µM | GI50 (HL-60): > 100 µM (inactive) | GI50 (HOP-18): > 100 µM (inactive) | GI50 (HOP-62): > 100 µM (inactive) | GI50 (HOP-92): > 100 µM (inactive) | GI50 (HT-29): > 100 µM (inactive) | GI50 (IGROV-1): > 100 µM (inactive) | GI50 (K562): 39.4 µM (inactive) | GI50 (KM-20L2): > 100 µM (inactive) | GI50 (KM12): > 100 µM (inactive) | GI50 (LOX IMVI): 21.1 µM (inactive) | GI50 (LXFL 529): > 100 µM (inactive) | GI50 (M14): > 100 µM (inactive) | GI50 (M19-MEL): > 100 µM (inactive) | GI50 (MOLT-4): > 100 µM (inactive) | GI50 (Malme-3M): > 100 µM (inactive) | GI50 (NCI-H226): > 100 µM (inactive) | GI50 (NCI-H23): > 100 µM (inactive) | GI50 (NCI-H460): > 100 µM (inactive) | GI50 (NCI-H522): > 100 µM (inactive) | GI50 (OVCAR-3): > 100 µM (inactive) | GI50 (OVCAR-4): > 100 µM (inactive) | GI50 (OVCAR-5): > 100 µM (inactive) | GI50 (OVCAR-8): > 100 µM (inactive) | GI50 (RPMI-8226): 70.1 µM (inactive) | GI50 (RXF 393): 77.8 µM (inactive) | GI50 (RXF 631): > 100 µM (inactive) | GI50 (SF-268): > 100 µM (inactive) | GI50 (SF-295): > 100 µM (inactive) | GI50 (SF-539): > 100 µM (inactive) | GI50 (SK-MEL-28): > 100 µM (inactive) | GI50 (SK-MEL-2): > 100 µM (inactive) | GI50 (SK-MEL-5): > 100 µM (inactive) | GI50 (SK-OV-3): > 100 µM (inactive) | GI50 (SN12C): > 100 µM (inactive) | GI50 (SNB-19): > 100 µM (inactive) | GI50 (SNB-75): > 100 µM (inactive) | GI50 (SNB-78): > 100 µM (inactive) | GI50 (SR): 31.2 µM (inactive) | GI50 (SW-620): 16 µM (inactive) | GI50 (TK-10): > 100 µM (inactive) | GI50 (U-251): > 100 µM (inactive) | GI50 (UACC-257): > 100 µM (inactive) | GI50 (UACC-62): > 100 µM (inactive) | GI50 (UO-31): > 100 µM (inactive) | GI50 (XF498): > 100 µM (inactive)
